Key:
Assay in all cases: Reverse Transcriptase Assay
[1] = biological target: T1, Gag-Pol polyprotein [588-1027,Y769I]/[588-1147,Y769I] (Human immunodeficiency virus 1, UniProt P04585, Y769I); conditions: pH 7.5; 37 °C
T1 construct: 588-1027; 588-1147
Procedure: (§1) The inhibition of the RNA-dependent DNA polymerase activity of the HIV-1 reverse transcriptase enzyme was measured using a primer extension assay. The substrate-incorporated radioactivity was quantitated by scintillation counting.

[2] = biological target: T2, Gag-Pol polyprotein [588-1027] (Human immunodeficiency virus type 1 group M subtype B (isolate HXB2), UniProt P04585); conditions: pH 7.5; 37 °C
T2 construct: 588-1027
Procedure: as §1

[3] = biological target: T3, Gag-Pol polyprotein [588-1027,Y776L]/[588-1147,Y776L] (Human immunodeficiency virus 1, UniProt P04585, Y776L)
T3 construct: 588-1027; 588-1147
Procedure: as §1

SMILES	Ki [1] [µM]	Ki [2] [µM]	Ki [3] [µM]
CCC1(c2ccc(COc3cccc(Cl)c3)cc2)Oc2cccnc2-n2cccc2C1=O (stereo not given) [8-[4-(3-chlorophenoxymethyl)phenyl]-8-ethyl-9-oxa-2,14-diazatricyclo[8.4.0.0^{2,6}]tetradeca-1(14),3,5,10,12-pentaen-7-one]	< 10		
CCC1(c2ccc(COc3cccc(Cl)c3)cc2)Oc2ccccc2-n2cccc2C1=O (stereo not given) [8-[4-(3-chlorophenoxymethyl)phenyl]-8-ethyl-9-oxa-2-azatricyclo[8.4.0.0^{2,6}]tetradeca-1(14),3,5,10,12-pentaen-7-one]	< 10	0.1	
CCC1(c2ccc(COc3ccccc3)cc2)Oc2cccnc2-n2cccc2C1=O (stereo not given) [8-ethyl-8-[4-(phenoxymethyl)phenyl]-9-oxa-2,14-diazatricyclo[8.4.0.0^{2,6}]tetradeca-1(14),3,5,10,12-pentaen-7-one]	< 10		< 10

From BindingDB's records for doi:10.1021/jm801395v (Universita Di Siena, 2009)
